Several values for one entry are separate records, joined by “and”; a condition that tells them apart may be missing. Equal values may be shown once. Read-outs that look alike come from different tables or passages of the source.
What was measured:
hTRPV1 L515A = molecular target: T1, hTRPV1 L515A (Homo sapiens, UniProt Q8NER1, L515A); test: whole-cell patch-clamp, SB-366791 inhibition of pH 5-induced current, L515A; assay type: cell-based; conditions: for I / Imax: +80 mV, individual cells
T1 construct: we used the same wild-type full-length construct to determine the hTRPV1 structure; expressed in transfected cells; host or cells: HEK293T ΔPIEZO1 cells, pIRES-EGFP plasmid

hTRPV1 R557A [1] = molecular target: T2, hTRPV1 R557A (Homo sapiens, UniProt Q8NER1, R557A); test: whole-cell patch-clamp, SB-366791 on pH-induced current, R557A; assay type: cell-based; conditions: pH 5
T2 construct: expressed in transfected cells; host or cells: HEK293 cells

hTRPV1 E570A [2] = molecular target: T3, hTRPV1 E570A (Homo sapiens, UniProt Q8NER1, E570A); test: whole-cell patch-clamp, SB-366791 on pH-induced current, E570A; assay type: cell-based; conditions: pH 5
T3 construct: expressed in transfected cells; host or cells: HEK293 cells

hTRPV1 T550A = molecular target: T4, hTRPV1 T550A (Homo sapiens, UniProt Q8NER1, T550A); test: whole-cell patch-clamp, SB-366791 inhibition of pH 5-induced current, T550A; assay type: cell-based
T4 construct: we used the same wild-type full-length construct to determine the hTRPV1 structure; expressed in transfected cells; host or cells: HEK293T ΔPIEZO1 cells, pIRES-EGFP plasmid

hTRPV1 [3] = molecular target: T5, hTRPV1 (Homo sapiens, UniProt Q8NER1); test: whole-cell patch-clamp, SB-366791 inhibition of pH 5-induced current, wild-type hTRPV1; assay type: cell-based; design: we used the same wild-type full-length construct to determine the hTRPV1 structure; expressed in transfected cells; host or cells: HEK293T ΔPIEZO1 cells, pIRES-EGFP plasmid
[4] = test system: glutamatergic transmission in a subset of neurons; conditions: pre-synaptic TRPV1-dependent mechanism following peripheral inflammation; cited from earlier work
[5] = test system: opiate-mediated behaviors; design: method as in PMID 27730727; conditions: rat studies; cited from earlier work
bone cancer pain = conditions: cited from earlier work
hTRPV1 Y511A [6] = molecular target: T6, hTRPV1 Y511A (Homo sapiens, UniProt Q8NER1, Y511A); test: whole-cell patch-clamp, SB-366791 inhibition of pH 5-induced current, Y511A; assay type: cell-based; conditions: for I / Imax: individual cells
T6 construct: expressed in transfected cells; host or cells: HEK293T ΔPIEZO1 cells, pIRES-EGFP plasmid

[7] = test system: panel of 47 different targets, including G-protein-coupled receptors and voltage-gated calcium-channels; conditions: cited from earlier work
hTRPV1 [8] = molecular target: T5, hTRPV1; test: whole-cell patch-clamp at -40 mV, SB-366791 inhibition of capsaicin-activated hTRPV1 current and recovery; assay type: cell-based; design: we used the same wild-type full-length construct to determine the hTRPV1 structure; expressed in transfected cells; host or cells: HEK293T ΔPIEZO1 cells, pIRES-EGFP plasmid; I (Cap), hTRPV1 peak current amplitude / I (SB), hTRPV1 peak current amplitude: unit not given here
hTRPV1 [9] = molecular target: T5, hTRPV1; conditions: no apparent change in the maximal response; cited from earlier work
hTRPV1 L547R = molecular target: T7, hTRPV1 L547R (Homo sapiens, UniProt Q8NER1, L547R); test: whole-cell patch-clamp, SB-366791 inhibition of pH 5-induced current, L547R; assay type: cell-based
T7 construct: we used the same wild-type full-length construct to determine the hTRPV1 structure; expressed in transfected cells; host or cells: HEK293T ΔPIEZO1 cells, pIRES-EGFP plasmid

acute pain = conditions: co-administered with a calcium channel blocker; mice; cited from earlier work
hTRPV1 E693A = molecular target: T8, hTRPV1 E693A (Homo sapiens, UniProt Q8NER1, E693A); test: whole-cell patch-clamp, SB-366791 inhibition of pH 5-induced current, E693A; assay type: cell-based; conditions: for I / Imax: individual cells
T8 construct: we used the same wild-type full-length construct to determine the hTRPV1 structure; expressed in transfected cells; host or cells: HEK293T ΔPIEZO1 cells, pIRES-EGFP plasmid

hTRPV1 R557A [10] = molecular target: T2, hTRPV1 R557A; test: whole-cell patch-clamp, capsaicin on hTRPV1 R557A; assay type: cell-based; conditions: 10 μM capsaicin
hTRPV1 E570A [11] = molecular target: T3, hTRPV1 E570A; test: whole-cell patch-clamp, capsaicin on hTRPV1 E570A; assay type: cell-based; conditions: 10 μM capsaicin
rat TRPV1 Y511A = conditions: cited from earlier work
squirrel TRPV1 = test system: squirrel TRPV1; design: method as in PMID 27638213; conditions: cited from earlier work
hTRPV1 Y511A [12] = molecular target: T6, hTRPV1 Y511A; test: whole-cell patch-clamp, capsaicin on hTRPV1 Y511A; assay type: cell-based; conditions: not shown
rat TRPV1 = test system: rat TRPV1; design: method as in PMID 27638213; conditions: cited from earlier work
mouse TRPV1 = test system: mouse TRPV1; design: method as in PMID 27638213; conditions: cited from earlier work
[13] = molecular target: the molecule itself; test: cryo-EM structure; apo hTRPV1 in cNW11 nanodiscs with soybean lipids or POPC:POPE:POPG (3:1:1); 150 mM NaCl, 20 mM Tris pH 8.0, 1 mM bME

With `COc1cccc(NC(=O)/C=C/c2ccc(Cl)cc2)c1` [SB-366791, N-(3-methoxyphenyl)−4-chlorocinnamide] the “sensitivity to inhibition by the blocker” value (hTRPV1 L515A) was “completely insensitive”, the “I / Imax” value (hTRPV1 L515A; SB-366791 0.0001 μM) was 1.151 and 1.003 and 0.775 and 1.067 and the “I / Imax” value (hTRPV1 L515A; SB-366791 0.001 μM) was 0.856 and 0.881 and 0.592 and 0.984. The “I / Imax” value (hTRPV1 L515A; SB-366791 0.01 μM) was 0.762 and 0.808 and 0.507 and 0.880, the “I / Imax” value (hTRPV1 L515A; SB-366791 0.1 μM) was 0.817 and 0.939 and 0.604 and 0.943 and the “I / Imax” value (hTRPV1 L515A; SB-366791 1 μM) was 0.888 and 1.233 and 0.959 and 1.206. For the same molecule, the “I / Imax” value (hTRPV1 L515A; SB-366791 10 μM) was 0.734 and 1.125 and 1.046 and 1.211, the “inhibition of current induced by changes in pH” value (hTRPV1 R557A [1]) was “did not induce any inhibition” and the “inhibition of current induced by changes in pH” value (hTRPV1 E570A [2]) was “did not induce any inhibition”. The “sensitivity to inhibition by the blocker” value (hTRPV1 T550A) was “completely insensitive”, the IC50 (hTRPV1 [3]; WT, pH 5, Hill fits of individual cells, read-out: SB-366791 IC50) was 0.00541 µM and 0.045 µM and 0.038 µM and 0.00646 µM and 0.026 µM and 0.013 µM and 0.015 µM and the SB-366791-resistant fraction (hTRPV1 [3]; WT, pH 5, individual cells) was 0.177 and 0.291 and 0.285 and 0.295 and 0.181 and 0.106 and 0.205. The IC50 (hTRPV1 [3]; WT, response to reviewers, read-out: inhibition by SB-366791, IC50) was 0.021 µM, the IC50 (hTRPV1 [3]; wild-type, pH 5, +80 mV, mean ± SEM, n = 7, read-out: IC50 of SB-366791) was 0.021 ± 0.006 µM and the “proportion of blocker-resistant current” value (hTRPV1 [3]; wild-type, pH 5, mean ± SEM, n = 7) was 0.220 ± 0.027 and 0.22 ± 0.03. For the same molecule, the “effect on glutamatergic transmission” value [4] was “inhibiting glutamatergic transmission”, the “effect on opiate-mediated behaviors” value [5] was “impair opiate-mediated behaviors” and the “effect on analgesia by systemic morphine” value (bone cancer pain) was “effectively potentiate the analgesic effects of systemic morphine”. The IC50 (hTRPV1 Y511A [6]; +80 mV, mean ± SEM, n = 7) was 0.253 ± 0.075 µM, the “I / Imax” value (hTRPV1 Y511A [6]; SB-366791 0.0001 μM, +80 mV) was 0.951 and 0.974 and 0.889 and 1.022 and the “I / Imax” value (hTRPV1 Y511A [6]; SB-366791 0.001 μM, +80 mV) was 0.916 and 0.924 and 0.887 and 0.985. The “I / Imax” value (hTRPV1 Y511A [6]; SB-366791 0.01 μM, +80 mV) was 0.893 and 0.810 and 0.838 and 0.939, the “I / Imax” value (hTRPV1 Y511A [6]; SB-366791 0.1 μM, +80 mV) was 0.831 (2×) and 0.718 (2×) and the “I / Imax” value (hTRPV1 Y511A [6]; SB-366791 1 μM, +80 mV) was 0.638 and 0.474 and 0.443 and 0.511. For the same molecule, the “I / Imax” value (hTRPV1 Y511A [6]; SB-366791 10 μM, +80 mV) was 0.537 and 0.399 and 0.380 and 0.562, the “proportion of blocker-resistant current” value (hTRPV1 Y511A [6]; mean ± SEM, n = 7) was 0.490 ± 0.070 and the “effect on a panel of 47 different targets” value [7] was “little or no effect”. For the same molecule, the “inhibition of capsaicin-activated hTRPV1” value (hTRPV1 [8]; 10 µM SB-366791 co-applied with 1 µM capsaicin, -40 mV) was “complete inhibition”, the “I (SB), hTRPV1 peak current amplitude” value (hTRPV1 [8]; Fig 2b, 10 µM SB-366791 in the presence of 1 µM capsaicin, 10 s after SB-366791 application, individual cells, listed as SB) was 0.010 and 0.020 and 0.060 and 0.011 and the “effect on capsaicin concentration dependence of hTRPV1-mediated calcium uptake” value (hTRPV1 [9]) was “rightward shift”. The “sensitivity to inhibition by the blocker” value (hTRPV1 L547R) was “completely insensitive”, the “synergistic increase of antinociceptive effect” value (acute pain) was 15 fold and the “I / Imax” value (hTRPV1 E693A; SB-366791 0.0001 μM, pH 5, +80 mV) was 0.860 (2×) and 0.830 and 0.980 and 0.850 and 0.890. For the same molecule, the “I / Imax” value (hTRPV1 E693A; SB-366791 0.01 μM, pH 5, +80 mV) was 0.820 and 0.780 and 0.880 and 0.830, the IC50 (hTRPV1 E693A; pH 5, +80 mV, mean ± SEM, n = 6, read-out: IC50 of SB-366791) was 0.1 ± 0.011 µM and the IC50 (hTRPV1 E693A; pH 5, Hill fits of individual cells, read-out: SB-366791 IC50) was 0.121 µM and 0.07 µM and 0.137 µM and 0.075 µM and 0.092 µM and 0.103 µM. The SB-366791-resistant fraction (hTRPV1 E693A; pH 5, individual cells) was 0.417 and 0.362 and 0.602 and 0.396 and 0.427 and 0.420, the “fraction of blocker-insensitive current” value (hTRPV1 E693A; pH 5, mean ± SEM, n = 6) was 0.440 ± 0.034 and the IC50 (hTRPV1 E693A; response to reviewers, read-out: inhibition by SB-366791, IC50) was 0.1 µM.

In the case of `COc1cc(CNC(=O)CCCC/C=C/C(C)C)ccc1O` [capsaicin], the “currents induced by capsaicin” value (hTRPV1 R557A [10]) is reported as “did not induce any currents”, the “currents induced by capsaicin” value (hTRPV1 E570A [11]) is reported as “did not induce any currents” and the “I (Cap), hTRPV1 peak current amplitude” value (hTRPV1 [8]; Fig 2b, 1 µM capsaicin, -40 mV, individual cells, listed as Cap) is reported as 0.380 and 0.430 and 4.800 and 2.000 and 1.600. The sensitivity to capsaicin (rat TRPV1 Y511A) was “insensitive”, the EC50 (squirrel TRPV1) was 0.529 ± 0.032 µM and the sensitivity to capsaicin (hTRPV1 Y511A [12]) was “insensitive”. For the same molecule, the EC50 (rat TRPV1) was 0.527 ± 0.053 µM and the EC50 (mouse TRPV1) was 0.776 ± 0.052 µM.

B1: human TRPV1 (natural protein, UniProt Q8NER1 1-839, looked up)
chain: MKKWSSTDLGAAADPLQKDTCPDPLDGDPNSRPPPAKPQLSTAKSRTRLFGKGDSEEAFPVDCPHEEGELDSCPTITVSPVITIQRPGDGPTGARLLSQDSVAASTEKTLRLYDRRSIFEAVAQNNCQDLESLLLFLQKSKKHLTDNEFKDPETGKTCLLKAMLNLHDGQNTTIPLLLEIARQTDSLKELVNASYTDSYYKGQTALHIAIERRNMALVTLLVENGADVQAAAHGDFFKKTKGRPGFYFGELPLSLAACTNQLGIVKFLLQNSWQTADISARDSVGNTVLHALVEVADNTADNTKFVTSMYNEILMLGAKLHPTLKLEELTNKKGMTPLALAAGTGKIGVLAYILQREIQEPECRHLSRKFTEWAYGPVHSSLYDLSCIDTCEKNSVLEVIAYSSSETPNRHDMLLVEPLNRLLQDKWDRFVKRIFYFNFLVYCLYMIIFTMAAYYRPVDGLPPFKMEKTGDYFRVTGEILSVLGGVYFFFRGIQYFLQRRPSMKTLFVDSYSEMLFFLQSLFMLATVVLYFSHLKEYVASMVFSLALGWTNMLYYTRGFQQMGIYAVMIEKMILRDLCRFMFVYIVFLFGFSTAVVTLIEDGKNDSLPSESTSHRWRGPACRPPDSSYNSLYSTCLELFKFTIGMGDLEFTENYDFKAVFIILLLAYVILTYILLLNMLIALMGETVNKIAQESKNIWKLQRAITILDTEKSFLKCMRKAFRSGKLLQVGYTPDGKDDYRWCFRVDEVNWTTWNTNVGIINEDPGNCEGVKRTLSFSLRSSRVSGRHWKNFALVPLLREASARDRQSAQPEEVYLRQFSGSLKPEDAEVFKSPAASGEK
notes: human TRPV1, wild-type full-length construct; residues 1-839 by the printed numbers (models hold 115-769 or 199-754); the tags of the construct are not described; Homotetramer; Apo samples in cNW11 nanodiscs, the SB-366791 sample in GDN detergent; also called hTRPV1; hTRPV1Apo; source: HEK 293S GnTI- cells transduced with baculovirus, purified (strep resin, SEC)
In the case of B1, the “stoichiometry N” value [13] is reported as 4.
